Read-outs that look alike come from different tables or passages of the source.
Assays:
[1] = Oral and intraperitoneal acute toxicity in mice (LD50, Probits method); format: in vivo; conditions: mouse, in vivo, Swiss female mice, 14 days observation
Protocol: (§1) 20 Swiss female albino mice are used for this test of the average weight of 20 g (±2), coming from Nossan breeding .
(§2) Cages: in Makrolon® with saw dust litter, Number of animals per cage: 5 Acclimation period: 1 week Temperature: 22°C (± 2°C) Humidity : 60%, Diet: pellets for mice produced by Nossan firm, Water ad libitum Fast before the treatment: 16 hours
(§3) Oral by gastric route and intraperitoneal.
(§4) The substances to be studied: EU11100, EU11102, EU11103, EU11104 are treated with 0.5% carboxymethylcellulose in spring water, for the oral administration, whereas the same substances are intraperitoneally administered in the form of a physiological solution .
(§5) For each of the above mentioned substances, a mother suspension is prepared having a concentration in the active ingredient of 250 mg/ml for the oral administration, and analogously a mother suspension is prepared for the intraperitoneal administration having a concentration of the desired active principle of 100 mg/ml.
(§6) The following doses are used • a) oral route: 5000 mg/kg • b) intraperitoneal route : 2000 mg/kg
(§7) If mortality is observed at the above mentioned doses, other doses are administered in order to obtain a dose-response curve.
(§8) 5 animals are used for every utilized concentration.
(§9) After the administration of the above substances the animals are kept under observation for 14 days , during which the mortality and the behaviour is observed.
(§10) LD₅₀ is determined on the base of the cumulative mortality observed in the successive 14 days after the administration by using the Probits method.

[2] = test system: Swiss female albino mice; assay: as above; format: in vivo; conditions: for Mortality per day: 5 animals; for mortality: intraperitoneal
Protocol: as §1, §2, §3, §4, §5, §6, §7, §8, §9, §10

[3] = test system: Helicobapter pylori; assay: Inhibition halos of the bacterial growth (impregnated disks on agar); format: cell-based
Protocol: Comparison substance: Metronidazole Solubilization of the substances : All the substances to be studied are dissolved at room temperature in DMSO.
Some commercially available antibiogram disks are so impregnated with the above mentioned compounds that each disk has concentration equal to 10, 1, 0.1, 0.01 µg.
10 strains of Helicobapter pylori are used of recent clinical isolation.
Columbia Blood Agar Base is used, containing 5% of defibrinated horse blood, 2 % of calf serum, 2 vials of Vitox per liter of medium and Vancomicine (10 µg/ml) Trimetoprim lactate(5 µg/ml) and Polimixin B (2.5 U/ml).
0.1 ml of a suspension of the different used strains are uniformly distributed onto Petri plates, containing 20 ml of Columbia Blood Agar base, obtained by taking a sample, by means of a platinum loop, of different colonies from a 48 hours culture, grown in anaerobiosis jars with "Gas Pack", without a catalyst and diluted into a physiological solution.
4 disks per plate, previously impregnated with the substances under examination, are then placed onto the agar layer of each plate.
After 48 hours of anaerobiosis incubation, as above described, the inhibition halos of the bacterial growth, produced by the different activity of the substances inside the agar, are evaluated.

[4] = solubility of the isolated product; format: physicochemical
[5] = test system: Salmonella typhimurium; assay: Ames test, mutagenic activity; format: cell-based
[6] = Direct mutation test (16 h treatment in the growth step); format: cell-based
Protocol: The tests are carried out on the compound EU11100 with or without metabolic activity for a treatment period of 16 h in the growth step. The used concentrations are 0.25-0.50 mg/ml without metabolic activation and 0.075-0.150 mg/ml with metabolic activation.

[7] = section A (without), 0.25 mg/ml
[8] = section A (without), 0.50 mg/ml

COc1cc(C(O)c2ncc([N+](=O)[O-])n2C)c(O)c(C(C)(C)C)c1 (stereo not drawn) [EU11100, 5-nitro-1-methyl-imidazolyl-3-terbutyl-2-hydroxy-5-methoxy-phenyl-carbinol]
LD50 at 336 h ([1]; po, per os, read-out: LD50 os): > 5000 mg/kg
LD50 at 336 h ([1]; ip, read-out: LD50 i.p.): 890 mg/kg
LD50 i.p. ([2]; Swiss female mice, ip, 14 days observation, 20160 min): LD50 i.p.= 890 mg/Kg (confidence limits: 781 - 1014)
Observation on the behaviour ([2]; ip, 500 mg/Kg): 500 mg/Kg: no alteration
Mortality per day ([2]; ip, 500 mg/Kg, day 1): 0
Observation on the behaviour ([2]; ip, 750 mg/Kg): 750 mg/Kg: motor activity reduction
Mortality per day ([2]; ip, 750 mg/Kg, day 1): 1
Mortality per day ([2]; ip, 1000 mg/Kg, day 1): 3
Mortality per day ([2]; ip, 1500 mg/Kg, day 1): 5
Mortality per day ([2]; ip, 2000 mg/Kg, day 1): 5
Death within (time) ([2]; ip, doses 2000 - 1500 - 1000 mg/Kg): 6 to 24 h
Observation on the behaviour ([2]; ip, doses 2000 - 1500 - 1000 mg/Kg, after 15-30'): considerable behaviouristic alteration, such as the loss of body-righting reflex
Observation on the behaviour ([2]; ip, doses 2000 - 1500 - 1000 mg/Kg, after 15-30', listed as EU 11100): considerable reduction motor activity and subsequent loss of body righting reflex
mortality ([2]; mice, 1500 mg/kg): 100%
mortality ([2]; mice, 2000 mg/kg): 100%
toxicity when intraperitoneally administered ([2]; mice, intraperitoneal, 2000, 1500 and 1000 mg/kg): toxic
toxicity when orally administered ([2]; mice, oral, 5000 mg/kg): not toxic
Observation on the behaviour ([2]; os, 5000 mg/Kg): No alteration
Mortality per day ([2]; os, 5000 mg/Kg, day 1): 0
Mortality per day ([2]; os, 5000 mg/Kg, day 2): 0
Mortality per day ([2]; os, 5000 mg/Kg, day 3): 0
Mortality per day ([2]; os, 5000 mg/Kg, day 4): 0
Mortality per day ([2]; os, 5000 mg/Kg, day 5): 0
Mortality per day ([2]; os, 5000 mg/Kg, day 6): 0
Mortality per day ([2]; os, 5000 mg/Kg, day 7): 0
Mortality per day ([2]; os, 5000 mg/Kg, day 8): 0
Mortality per day ([2]; os, 5000 mg/Kg, day 9): 0
Mortality per day ([2]; os, 5000 mg/Kg, day 10): 0
Mortality per day ([2]; os, 5000 mg/Kg, day 11): 0
Mortality per day ([2]; os, 5000 mg/Kg, day 12): 0
Mortality per day ([2]; os, 5000 mg/Kg, day 13): 0
Mortality per day ([2]; os, 5000 mg/Kg, day 14): 0
activity against the Helicobapter pylori strains used ([3]; 10 strains, 0.1 µg/disk): still able to produce halos against all the strains used
Inhibition halo (mm), Average ([3]; average of 10 strains, 10 µg/disk): 43.7 mm
Inhibition halo (mm) at the concentration (µg/disk) ([3]; strain 1, 0.01 µg/disk): 0 mm
Inhibition halo (mm) at the concentration (µg/disk) ([3]; strain 1, 0.1 µg/disk): 26 mm
Inhibition halo (mm) at the concentration (µg/disk) ([3]; strain 1, 1 µg/disk): 35 mm
Inhibition halo (mm) at the concentration (µg/disk) ([3]; strain 1, 10 µg/disk): 50 mm
Inhibition halo (mm) at the concentration (µg/disk) ([3]; strain 2, 0.01 µg/disk): 0 mm
Inhibition halo (mm) at the concentration (µg/disk) ([3]; strain 2, 1 µg/disk): 30 mm
Inhibition halo (mm) at the concentration (µg/disk) ([3]; strain 2, 10 µg/disk): 44 mm
Inhibition halo (mm) at the concentration (µg/disk) ([3]; strain 3, 0.01 µg/disk): 0 mm
Inhibition halo (mm) at the concentration (µg/disk) ([3]; strain 3, 0.1 µg/disk): 14 mm
Inhibition halo (mm) at the concentration (µg/disk) ([3]; strain 3, 1 µg/disk): 30 mm
Inhibition halo (mm) at the concentration (µg/disk) ([3]; strain 3, 10 µg/disk): 38 mm
Inhibition halo (mm) at the concentration (µg/disk) ([3]; strain 4, 0.01 µg/disk): 0 mm
Inhibition halo (mm) at the concentration (µg/disk) ([3]; strain 4, 0.1 µg/disk): 26 mm
Inhibition halo (mm) at the concentration (µg/disk) ([3]; strain 4, 1 µg/disk): 35 mm
Inhibition halo (mm) at the concentration (µg/disk) ([3]; strain 4, 10 µg/disk): 50 mm
Inhibition halo (mm) at the concentration (µg/disk) ([3]; strain 5, 0.01 µg/disk): 0 mm
Inhibition halo (mm) at the concentration (µg/disk) ([3]; strain 5, 0.1 µg/disk): 12 mm
Inhibition halo (mm) at the concentration (µg/disk) ([3]; strain 5, 1 µg/disk): 22 mm
Inhibition halo (mm) at the concentration (µg/disk) ([3]; strain 5, 10 µg/disk): 38 mm
Inhibition halo (mm) at the concentration (µg/disk) ([3]; strain 6, 0.01 µg/disk): 0 mm
Inhibition halo (mm) at the concentration (µg/disk) ([3]; strain 6, 0.1 µg/disk): 22 mm
Inhibition halo (mm) at the concentration (µg/disk) ([3]; strain 6, 1 µg/disk): 34 mm
Inhibition halo (mm) at the concentration (µg/disk) ([3]; strain 6, 10 µg/disk): 48 mm
Inhibition halo (mm) at the concentration (µg/disk) ([3]; strain 7, 0.01 µg/disk): 0 mm
Inhibition halo (mm) at the concentration (µg/disk) ([3]; strain 7, 0.1 µg/disk): 12 mm
Inhibition halo (mm) at the concentration (µg/disk) ([3]; strain 7, 1 µg/disk): 28 mm
Inhibition halo (mm) at the concentration (µg/disk) ([3]; strain 7, 10 µg/disk): 35 mm
Inhibition halo (mm) at the concentration (µg/disk) ([3]; strain 8, 0.01 µg/disk): 0 mm
Inhibition halo (mm) at the concentration (µg/disk) ([3]; strain 8, 0.1 µg/disk): 21 mm
Inhibition halo (mm) at the concentration (µg/disk) ([3]; strain 8, 10 µg/disk): 48 mm
Inhibition halo (mm) at the concentration (µg/disk) ([3]; strain 9, 0.01 µg/disk): 0 mm
Inhibition halo (mm) at the concentration (µg/disk) ([3]; strain 9, 1 µg/disk): 28 mm
Inhibition halo (mm) at the concentration (µg/disk) ([3]; strain 9, 10 µg/disk): 43 mm
Inhibition halo (mm) at the concentration (µg/disk) ([3]; strain 10, 0.01 µg/disk): 0 mm
Inhibition halo (mm) at the concentration (µg/disk) ([3]; strain 10, 0.1 µg/disk): 14 mm
Inhibition halo (mm) at the concentration (µg/disk) ([3]; strain 10, 10 µg/disk): 43 mm
solubility [4]: Soluble in CH₃OH, benzene, acetone, ethyl ether; insoluble in water and ligroin.
toxicity to the Salmonella strains ([5]; 1000 µg/capsule, in the absence of metabolic activation): toxic
mutagenic activity ([5]; general statement): practically no mutagenic activity
doubling of the base value ([5]; strain TA-100, without metabolic activation, 500 µg/capsule): 1.95 times
signal in other strains ([5]; strains other than TA-100, without metabolic activation): do not give rise to any particular signal
spontaneous reversion of Salmonella ([5]; with metabolic activation, 250, 500 and 1000 µg/capsule): does not increase the spontaneous reversion of Salmonella
Frequency of: Mutation [6, 7]: 1.60
Survival (%) [6, 7]: 71.1%
Frequency of: Mutation [6, 8]: 0.00
Survival (%) [6, 8]: 36.4%
Frequency of: Mutation ([6]; section B (with), 0.075 mg/ml): 2.11
Survival (%) ([6]; section B (with), 0.075 mg/ml): 89.9%
Frequency of: Mutation ([6]; section B (with), 0.150 mg/ml): 3.22
Survival (%) ([6]; section B (with), 0.150 mg/ml): 29.5%

— patent EP0535528A1, “Antibacterial 5-Nitro-1-methyl-imidazolyl-3-terbutyl-2-hydroxy-aryl-carbinols” (EURORESEARCH S.r.L., priority 1991, dated 1993)
